The text below walks through data of US7109174B2, “Anticonvulsant derivatives useful for preventing the development of type II diabetes mellitus and syndrome X” (Ortho-McNeil Pharmaceutical, Inc., priority 2000, dated 2006).

The experiment concerns Female db/db mice. The experiment can be described thus: Oral glucose tolerance test (fasted) in female db/db mice after 11 days oral dosing. It counts as in vivo. Particulars: for Oral Glucose Tolerance Test (fasted) Plasma Glucose: ± sem. The procedure: Female db/db mice (C57BLK S/J-m^+/^+ Lepr^db Jackson Labs, Bar Harbor, Me.), 7–8 weeks of age, were housed four per cage in solid-bottomed shoe box cages. Room temperature was maintained at 68–72° F. and humidity at 50–65%. Room lighting was on a 12-hour light/12-hour dark cycle. The mice were maintained on NIH Rat and Mouse/Auto 6F reduced fat diet #5K52 (PMI Nutrition Int'l Inc.). Food and water were supplied ad libitum.
Test compound and vehicle were dosed orally and prepared as suspensions in 0.5% hydroxypropylmethylcellulose (Dow Chemical, Midland, Mich.). The dosing volume was 10 mL/kg of body weight.
Different groups of female db/db mice (7–8/group) were orally gavaged daily for 11 days with either 0.5% methylcellulose in dH2O (vehicle), topiramate at 30 or 100 mg/kg/day or 2,3:4,5-bis-O-(1-methylethylidene)-β-L-fructopyranose sulfamate (hereinafter referred to as Compound V) at 30 or 100 mg/kg/day. On day 10, the animals were fasted for 20 hours before being tested for oral glucose tolerance (OGT). On day 11, four hours after the final dose for each group, an oral glucose tolerance test (OGTT) was performed by oral glucose administration of 2 g/kg. Animals were bled through tail clip at 0 (before glucose), 30, 60 and 120 min after glucose challenge. The blood samples were collected into heparinized CB microvettes and then put on ice. The plasma samples will be assayed for plasma glucose determination by using SIGMA DIAGNOSTICS Trinder reagent (Sigma, St. Louis, Mo.). Statistical analysis was performed using the program Instat (Graphpad, Monrovia, Calif.) and performing one-way ANOVA with a Dunnett's multiple comparison test.
Following the above described procedure, the effect of topiramate and compound V on oral glucose tolerance in female db/db mice, 7 mice/group, was determined, with results as listed in Table 9. The abbreviation N represents the number of animals per study group.

`CC1(C)O[C@H]2[C@H](CO[C@]3(COS(N)(=O)=O)OC(C)(C)O[C@H]23)O1` [Compound V, 2,3:4,5-bis-O-(1-methylethylidene)-β-L-fructopyranose sulfamate] displayed an Oral Glucose Tolerance Test (fasted) Plasma Glucose (30 mg/kg/day, 0 min (before glucose 2 g/kg)) of 221 ± 22.9 mg/dL; an Oral Glucose Tolerance Test (fasted) Plasma Glucose (30 mg/kg/day, 30 min after glucose 2 g/kg) of 441 ± 35.7 mg/dL; an Oral Glucose Tolerance Test (fasted) Plasma Glucose (30 mg/kg/day, 60 min after glucose 2 g/kg) of 244 ± 21.6 mg/dL; an Oral Glucose Tolerance Test (fasted) Plasma Glucose (30 mg/kg/day, 120 min after glucose 2 g/kg) of 213 ± 28.7 mg/dL; an Oral Glucose Tolerance Test (fasted) Plasma Glucose (100 mg/kg/day, 0 min (before glucose 2 g/kg)) of 152 ± 27.3 mg/dL; an Oral Glucose Tolerance Test (fasted) Plasma Glucose (100 mg/kg/day, 30 min after glucose 2 g/kg) of 449 ± 42.6 mg/dL. Moreover, the Oral Glucose Tolerance Test (fasted) Plasma Glucose runs as follows: (100 mg/kg/day, 60 min after glucose 2 g/kg) 319 ± 52.7 mg/dL; (100 mg/kg/day, 120 min after glucose 2 g/kg) 153 ± 33 mg/dL. Also, under “30 or 100 mg/kg/day”, the “elevated blood glucose levels induced by oral glucose challenge” value is “suppressed”. Moreover, the fasting glucose levels result (30 or 100 mg/kg/day) is reported as “decreased”.
